Test results taken from US11976083B2, “Inhibitors of peptidylarginine deiminases” (Gilead Sciences, Inc., priority 2020, dated 2024).

Target: T1, human PAD4 (Homo sapiens, UniProt Q9UM07)
T1 construct: human PAD4 (NM_012387), A2-P663, was PCR amplified; His-SUMO (N, cleaved yes); made in house; host or cells: E. coli BL21(DE3)
Experiment: In vitro PAD4 BAEE biochemical assay
Conditions: BAEE substrate 3 mM, 5 nM PAD4, 2 mM calcium chloride; geometric mean of multiple experiments
Procedure, shortened: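 Recombinant PAD4 (5 nM final) with 2 mM CaCl2 was preincubated with compound for 30 min at 25 °C in MOPS pH 7.6 buffer with DTT, then reacted with 3 mM BAEE for 2 h at 25 °C. Released ammonia was detected fluorimetrically with o-phthalaldehyde/DTT; IC50 from four-parameter fit, geometric mean of experiments.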

T1 sequence (Q9UM07 2-663): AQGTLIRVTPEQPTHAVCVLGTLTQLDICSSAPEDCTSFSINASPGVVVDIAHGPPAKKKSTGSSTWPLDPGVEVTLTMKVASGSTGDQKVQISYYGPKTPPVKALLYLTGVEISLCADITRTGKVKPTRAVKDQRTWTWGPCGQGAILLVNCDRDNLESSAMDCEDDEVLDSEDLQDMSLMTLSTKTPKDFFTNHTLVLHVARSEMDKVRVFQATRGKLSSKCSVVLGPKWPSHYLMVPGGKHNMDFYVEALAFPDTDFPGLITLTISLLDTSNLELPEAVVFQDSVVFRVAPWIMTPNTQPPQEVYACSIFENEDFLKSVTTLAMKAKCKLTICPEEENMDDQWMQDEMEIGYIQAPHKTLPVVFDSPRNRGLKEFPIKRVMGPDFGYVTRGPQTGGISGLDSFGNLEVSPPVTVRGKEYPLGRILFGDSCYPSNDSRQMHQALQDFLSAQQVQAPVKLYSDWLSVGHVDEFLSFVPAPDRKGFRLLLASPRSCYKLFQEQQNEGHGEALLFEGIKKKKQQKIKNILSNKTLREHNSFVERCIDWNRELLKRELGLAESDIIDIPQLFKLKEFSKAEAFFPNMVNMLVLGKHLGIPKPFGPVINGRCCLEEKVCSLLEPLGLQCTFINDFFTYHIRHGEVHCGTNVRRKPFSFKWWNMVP

Structure (SMILES) | IC50 [nM]
COc1cc(C(=O)N[C@H]2CNCC[C@@H]2F)cc2nc(-c3cc4ccc5nc4n3C[C@H]3[C@H](CCCC(C)(C)C(=O)N[C@@H]5C)C3(F)F)n(C)c12 (single isomer, unassigned) [Example 364, 2-[(3˜{R},5˜{S},12˜{R})-4,4-difluoro-9,9,12-trimethyl-10-oxo-1,11,20-triazatetracyclo[11.5.2.0^{3,5}.0^{16,19}]icosa-13(20),14,16(19),17-tetraen-18-yl]-˜{N}-[(3˜{S},4˜{S})-4-fluoro-3-piperidyl]-7-methoxy-1-methyl-benzimidazole-5-carboxamide] | 203
COc1cc(C(=O)N2CCC[C@@H](N)[C@H]2CO)cc2nc(-c3cc4ccc5nc4n3CCCCC[C@@H]3C[C@H]3C(=O)N[C@@H]5C)n(C)c12 [Example 408, (2~{R},5~{R},7~{R})-14-[5-[(2~{S},3~{R})-3-amino-2-(hydroxymethyl)piperidine-1-carbonyl]-7-methoxy-1-methyl-benzimidazol-2-yl]-2-methyl-3,13,19-triazatetracyclo[11.5.2.0^{5,7}.0^{16,20}] icosa-1(19),14,16(20),17-tetraen-4-one] | 255
COc1cc(C(=O)N[C@H]2CNCCC2(F)F)cc2nc(-c3cc4ccc5cc4n3CCCCCCC(C)(C)C(=O)N[C@@H]5C)n(C)c12 [Example 191, ~{N}-[(3~{S})-4,4-difluoro-3-piperidyl]-7-methoxy-1-methyl-2-[(11~{R})-8,8,11-trimethyl-9-oxo-1,10-diazatricyclo[10.5.2.0^{15,18}]nonadeca-12(19),13,15(18),16-tetraen-17-yl]benzimidazole-5-carboxamide] | 140
COc1cc(C(=O)N2CC[C@@H](OC(F)F)[C@@H](N)C2)cc2nc(-c3cc4ccc5nc4n3CC(F)(F)CCC[C@@H]3C[C@H]3C(=O)N[C@@H]5C)n(C)c12 [Example 850, (2~{R},5~{R},7~{R})-14-[5-[(3~{S},4~{R})-3-amino-4-(difluoromethoxy)piperidine-1-carbonyl]-7-methoxy-1-methyl-benzimidazol-2-yl]-11,11-difluoro-2-methyl-3,13,19-triazatetracyclo[11.5.2.0^ {5,7}.0^{16,20}]icosa-1(19), 14,16(20),17-tetraen-4-one] | 64
COc1cc(C(=O)N[C@H]2CNCC[C@@H]2F)cc2nc(-c3cc4ccc5nc4n3CCCCCCC(C)(C)C(=O)N[C@@H]5C)n(C)c12 [Example 178, ~{N}-[(3~{S},4~{S})-4-fluoro-3-piperidyl]-7-methoxy-1-methyl-2-[(11~{R})-8,8,11-trimethyl-9-oxo-1,10-diazatricyclo[10.5.2.0^{15,18}]nonadeca-12(19),13,15(18),16-tetraen-17-yl]benzimidazole-5-carboxamide] | 50
C[C@H]1NC(=O)c2ccc(Cl)nc2CCCCCn2c(-c3nc4cc(C(=O)N5C[C@H](N)[C@@H]6CC[C@H]5C6)cc(OC(F)F)c4n3C3CC3)cc3ccc1nc32 [Example 760, (2~{R})-17-[5-[(1~{S},4~{R}, 5~{R})-4-amino-2-azabicyclo [3.2.1]octane-2-carbonyl]-1-cyclopropyl-7-(difluoromethoxy)benzimidazol-2-yl]-8-chloro-2-methyl-3,9,16,22-tetrazatetracyclo [14.5.2.0^{5,10}.0^{19,23}] tricosa-1(22),5(10), 6,8,17,19(23),20-heptaen-4-one] | 70
COc1cc(C(=O)N2[C@H]3CC[C@@H]2[C@H](N)C3)cc2nc(-c3cc4ccc5nc4n3C[C@@H]3CC[C@@H]3COCCC(=O)N[C@@H]5C)c(C)n12 [Example 9, (3~{R},6~{S},13~{R})-19-[7-[(1~{R},2~{R},4~{S})-2-amino-7-azabicyclo[2.2.1]heptane-7-carbonyl]-5-methoxy-3-methyl-imidazo[1,2-a]pyridin-2-yl]-13-methyl-8-oxa-1,12,21-triazatetracyclo[12.5.2.0^{3,6}.0^{17,20}] henicosa-14(21),15,17(20),18-tetraen-11-one] | 53
COc1cc(C(=O)N2CCC[C@@H](N)C2)cc2nc(-c3cc4ccc5nc4n3CC3(CCCCCC(=O)N[C@@H]5C)CC3)n(C)c12 [Example 114, (11~{R})-17-[5-[(3~{R})-3-aminopiperidine-1-carbonyl]-7-methoxy-1-methyl-benzimidazol-2-yl]-11-methyl-spiro[1,10,19-triazatricyclo[10.5.2.0^{15,18}]nonadeca-12(19),13,15(18),16-tetraene-3,1′-cyclopropane]-9-one] | 61
COc1cc(C(=O)N2CC[C@@H](OC)[C@@H](N)C2)cc2nc(-c3cc4ccc5c(F)c4n3CCCCCCC(C)(C)C(=O)N[C@@H]5C)n(C)c12 [Example 643, (11~{R})-17-[5-[(3~{S}, 4~{R})-3-amino-4-methoxy-piperidine-1-carbonyl]-7-methoxy-1-methyl-benzimidazol-2-yl]-19-fluoro-8,8,11-trimethyl-1,10-diazatricyclo[10.5.2.0^ {15,18}]nonadeca-12(19),13,15(18),16-tetraen-9-one] | 54
COc1cc(C(=O)N2C[C@H](N)[C@@H]3CC[C@H]2C3)cc2nc(-c3cc4ccc5nc4n3CCCCCc3cc(C(F)(F)F)ncc3C(=O)N[C@@H]5C)n(C3CC3)c12 [Example 942, (2~{R})-17-[5-[(1~{S},4~{R},5~ {R})-4-amino-2-azabicyclo [3.2.1]octane-2-carbonyl]-1-cyclopropyl-7-methoxy-benzimidazol-2-yl]-2-methyl-8-(trifluoromethyl)-3,7,16,22-tetrazatetracyclo[14.5.2.0^ {5,10).0^{19,23}]tricosa-1(22), 5(10),6,8,17,19(23),20-heptaen-4-one] | 72

Results, then the compound that gave them:

IC50 [nM] | Structure (SMILES)
90 | COc1cc(C(=O)N2CCC[C@@H](N)C2)cc2nc(-c3cc4ccc5nc4n3C[C@@H]3C[C@H]3CC[C@H]3C[C@@H]3C(=O)N[C@@H]5C)n(C)c12 [Example 167, (3~{R},5~{R},8~{S},10~{S},13~{R})-19-[5-[(3~{R})-3-aminopiperidine-1-carbonyl]-7-methoxy-1-methyl-benzimidazol-2-yl]-13-methyl-1,12,21-triazapentacyclo[12.5.2.0^{3,5}.0^{8,10}.0^ {17,20}]henicosa-14(21),15,17(20),18-tetraen-11-one]
523 | C[C@H]1NC(=O)[C@@H]2C[C@H]2C/C=C/CCn2c(-c3nc4cc(C(=O)N[C@H]5CNCC[C@@H]5F)cc(C(F)(F)F)c4n3C)cc3ccc1nc32 [Example 561, ~{N}-[(3~{S},4~{S})-4-fluoro-3-piperidyl]-1-methyl-2-[(2~{R},5~{R}, 7~{R},9~{E})-2-methyl-4-oxo-3,13,19-triazatetracyclo [11.5.2.0^{5,7}.0^{16,20}]icosa-1(19),9,14,16(20), 17-pentaen-14-yl]-7-(trifluoromethyl) benzimidazole-5-carboxamide]
137 | COc1cc(C(=O)N[C@@H]2CCCNC2)cc2nc(-c3cc4ccc5nc4n3CCCCCCC(C)(C)C(=O)N[C@@H]5C)n(C)c12 [Example 70, 7-methoxy-1-methyl-~{N}-[(3~{R})-3-piperidyl]-2-[(11~{R})-8,8,11-trimethyl-9-oxo-1,10,19-triazatricyclo[10.5.2.0^{15,18}]nonadeca-12(19),13,15(18),16-tetraen-17-yl]benzimidazole-5-carboxamide]
31 | C[C@H]1NC(=O)[C@@H]2C[C@@]2(F)CC[C@@H]2C[C@@H]2Cn2c(-c3nc4cc(C(=O)N5C[C@H](N)[C@@H]6CC[C@H]5C6)cc(F)c4n3C3CC3)cc3ccc1nc32 [Example 918, (3~{S},5~{R},8~{S},10~{S}, 13~{R})-19-[5-[(1~{S), 4~{R},5~{R})-4-amino-2-azabicyclo[3.2.1]octane-2-carbonyl]-1-cyclopropyl-7-fluoro-benzimidazol-2-yl]-8-fluoro-13-methyl-1,12,21-triazapentacyclo[12.5.2.0^ {3,5}.0^{8,10}.0^{17,20}] henicosa-14(21),15, 17(20),18-tetraen-11-one]
29 | [2H]C1([2H])CCCC[C@@H]2C[C@H]2C(=O)N[C@H](C)c2ccc3cc(-c4nc5cc(C(=O)N6CC[C@@H](OC)[C@@H](N)C6)cc(F)c5n4C4CC4)n1c3n2 [Example 874, (2~{R},5~{R},7~{R})-14-[5-[(3~{S},4~{R})-3-amino-4-methoxy-piperidine-1-carbonyl]-1-cyclopropyl-7-fluoro-benzimidazol-2-yl]-12,12-dideuterio-2-methyl-3,13,19-triazatetracyclo[11.5.2.0^ {5,7}.0^{16,20}]icosa-1(19), 14,16(20),17-tetraen-4-one]
97 | C[C@H]1NC(=O)[C@@H]2CC2CCCC(F)(F)Cn2c(-c3nc4cc(C(=O)N5C[C@H]6CC[C@@H]5[C@@H]6N)c(F)c(F)c4n3C)cc3ccc1nc32 (some centres unmarked) [Example 566, (2~{R},5~{R},7~{R})-14-[5-[(1~{R},4~{R},7~{R})-7-amino-2-azabicyclo [2.2.1]heptane-2-carbonyl]-6,7-difluoro-1-methyl-benzimidazol-2-yl]-11,11-difluoro-2-methyl-3,13,19-triazatetracyclo[11.5.2.0^ {5,7).0^{16,20}]icosa-1(19),14,16(20),17-tetraen-4-one]
453 | COc1cc(C(=O)N2CC[C@H]3CCCN[C@H]3C2)cc2nc(-c3cc4ccc5nc4n3CCCCCCC3(CC3)C(=O)N[C@@H]5C)n(C)c12 [Example 260, (11~{R})-17-[5-[(4~{a}~{R},8~{a}~{R})-2,3,4,4~{a},5,6,8,8~{a}-octahydro-1~{H}-1,7-naphthyridine-7-carbonyl]-7-methoxy-1-methyl-benzimidazol-2-yl]-11-methyl-spiro[1,10,19-triazatricyclo[10.5.2.0^{15,18}]nonadeca-12(19),13,15(18),16-tetraene-8,1′-cyclopropane]-9-one]
